Target: 20S proteasome (Homo sapiens, UniProt P25787+P60900)
Experiment: AFM imaging of gate conformers of 20S proteasomes
Design: purified from erythrocytes; purchased Boston Biochem, Inc. or Enzo Life Sciences, Inc; host or cells: human erythrocytes
Conditions: 1 μM
Procedure: Atomic Force Microscopy (AFM) Imaging. Single molecules of 20S proteasomes were imaged in tapping (oscillating) mode in liquid, with a scanner E of the Multimode Nanoscope IIIa (Bruker Inc., Santa Barbara, Calif.). The proteasomes were electrostatically attached to a muscovite mica substrate, covered with imaging buffer (5 mM Tris/HCl, pH 7) and scanned using cantilevers with the spring constant of 0.35 N/m from the SNL (Sharp Nitride Lever) probes (Bruker Inc., Santa Barbara, Calif.) tuned to 9-10 kHz. The amplitude set-point in the range of 1.5-2.0V, drive voltage of 300-500 mV and 3.05 Hz scanning rate were used. Scans of 1 μm^2 fields (512×512 pixels) were collected in height-mode. The images of fields typically contained several dozens of top-view (“standing”) 20S proteasome particles. The gate status was deduced from a profile of raw height values of pixels measured by a probe scanning across the single proteasome particles. In short, under the employed scanning conditions the proteasome a face with the central gate area was completely rendered by a six-pixel (11-12 nm) scan-line fragment. Numerical values of the height of particles of raw (after standard flattening) images were collected with a practical vertical resolution reaching 1 Å. […] The “events” of gate opening/closing were analysed for scans of distinct particles as well as multiple scans of the same particles.

With `N=C(N)NCCCC(NC(=O)CN)C(=O)NC(CCCCN)C(=O)NC(CCCCN)C(=O)NC(CCCNC(=N)N)C(=O)NC(CCCNC(=N)N)C(=O)NC(CCC(N)=O)C(=O)N1Cc2ccccc2C[C@H]1C(=O)N1C(C(=O)NC(CCCNC(N)N)C(=O)N2CCCC2C(=O)NC(CO)C(=O)O)CC2CCCCC21` (stereo partly shown) [(5), GRKKRRQ-TOD-RPS] the intermediate conformers was 27%.
